Eight molecules from PubChem BioAssay (NCI) can be followed below.

Structures are written as SMILES.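 Where inhibition never reached the appropriate level, the endpoint shown equals the highest concentration tested. Otherwise, values were interpolated linearly from a five-concentration, 48-hour dose response in 96-well plates. TGI marks complete inhibition of growth.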 Some results are limits rather than exact numbers.

Among the test systems are SF-268 CNS; RPMI-8226 leukemia; HCT-116 colon; TK-10 renal; NCI-H460 lung; IGROV1 ovarian; EKVX NSCLC; SF-295 CNS; 786-0 renal; UO-31 renal; COLO 205 colon; SN12C renal; A549 NSCLC; SK-OV-3 ovarian; MDA-MB-435; MDA-MB-231 breast; SK-MEL-2 melanoma; OVCAR-4 ovarian; A498 renal; NCI/ADR-RES ovarian.
Holding throughout (assay): NCI tumour cell line growth inhibition, 48 h

Consider `CCCCCCCCCCCCCCCCNc1cccc2ccccc12`, for which the TGI with SF-268 CNS, in the assay with RPMI-8226 leukemia, in the assay with HCT-116 colon, with TK-10 renal, with NCI-H460 lung and in the assay with IGROV1 ovarian was above 100 µM each time. The TGI in the assay on EKVX NSCLC, in the assay on SF-295 CNS, in the assay with 786-0 renal, in the assay on UO-31 renal, in the assay with COLO 205 colon and in the assay on SN12C renal was above 100 µM in each case. For the same molecule, the TGI in the assay on A549 NSCLC and in the assay on SK-OV-3 ovarian was above 100 µM throughout.

For `C=C(C(=O)OCC)C(=O)OCC`, the TGI in the assay on SF-268 CNS, in the assay on RPMI-8226 leukemia, in the assay on HCT-116 colon, in the assay on MDA-MB-435, in the assay on TK-10 renal and in the assay on MDA-MB-231 breast was above 100 µM in each case. Besides, the TGI in the assay with NCI-H460 lung, in the assay with IGROV1 ovarian, in the assay on EKVX NSCLC, with SF-295 CNS, in the assay with 786-0 renal and in the assay with SK-MEL-2 melanoma was above 100 µM in each case. Also, the TGI with UO-31 renal, with COLO 205 colon, with SN12C renal, with A549 NSCLC and in the assay on SK-OV-3 ovarian was above 100 µM each time.

For `CCOC(=O)C1S/C(=N\C(=N)N[N+](=O)[O-])N=C1C` (centres undefined), the TGI in the assay on SF-268 CNS, in the assay on OVCAR-4 ovarian, in the assay with RPMI-8226 leukemia, in the assay with A498 renal, with HCT-116 colon and in the assay on TK-10 renal was above 100 µM throughout. The TGI in the assay on NCI-H460 lung, with IGROV1 ovarian, with EKVX NSCLC, with SF-295 CNS, in the assay on 786-0 renal and in the assay with SK-MEL-2 melanoma was above 100 µM throughout. For the same molecule, the TGI in the assay with UO-31 renal, in the assay with COLO 205 colon, in the assay on SN12C renal and with A549 NSCLC was above 100 µM each time.

Consider `O=C1OCC/C1=N/O`, for which the TGI in the assay with SF-268 CNS, in the assay on OVCAR-4 ovarian, in the assay with RPMI-8226 leukemia, with A498 renal, in the assay with HCT-116 colon and in the assay with TK-10 renal was above 100 µM in each case. Besides, the TGI with NCI-H460 lung, in the assay on IGROV1 ovarian, in the assay on EKVX NSCLC, in the assay on SF-295 CNS, with 786-0 renal and with SK-MEL-2 melanoma was above 100 µM throughout. The TGI in the assay on UO-31 renal, in the assay with COLO 205 colon, in the assay with SN12C renal, with A549 NSCLC and in the assay on SK-OV-3 ovarian was above 100 µM in each case.

Consider `CC1(C)OC[C@@H](O)[C@H](C#N)CO1`, for which the TGI in the assay on SF-268 CNS, with OVCAR-4 ovarian, in the assay on RPMI-8226 leukemia, in the assay with A498 renal, in the assay with HCT-116 colon and with MDA-MB-435 was above 100 µM each time. The TGI with TK-10 renal, in the assay on MDA-MB-231 breast, in the assay with NCI-H460 lung, with EKVX NSCLC, with SF-295 CNS and with 786-0 renal was above 100 µM throughout. Further, the TGI in the assay on SK-MEL-2 melanoma, in the assay with UO-31 renal, in the assay on COLO 205 colon, in the assay with SN12C renal, with A549 NSCLC and in the assay on SK-OV-3 ovarian was above 100 µM each time.

`CCCCCC#CCOC(=O)C(=[N+]=[N-])P(=O)(c1ccccc1)c1ccccc1`: the TGI in the assay with SF-268 CNS, in the assay on RPMI-8226 leukemia, in the assay on A498 renal, in the assay on HCT-116 colon, in the assay on MDA-MB-435 and with TK-10 renal was above 10 µM throughout. The TGI with MDA-MB-231 breast, in the assay on NCI-H460 lung, in the assay with IGROV1 ovarian, in the assay on EKVX NSCLC, with SF-295 CNS and with 786-0 renal was above 10 µM throughout. In addition, the TGI in the assay with UO-31 renal, with SN12C renal, in the assay with A549 NSCLC and in the assay with SK-OV-3 ovarian was above 10 µM throughout.

Turning to `CCCCCCCCCCCC[S+](C)C`, the TGI was 20.2 µM with SF-268 CNS; above 91.9 µM with NCI/ADR-RES ovarian; 18.8 µM in the assay with OVCAR-4 ovarian; 28.4 µM with RPMI-8226 leukemia; 28.1 µM in the assay on A498 renal; 20.8 µM in the assay with HCT-116 colon. In addition, the TGI was found to be 18.3 µM in the assay on TK-10 renal; 10.1 µM in the assay with MDA-MB-231 breast; 33.2 µM in the assay with NCI-H460 lung; 6.16 µM in the assay on IGROV1 ovarian; 20.2 µM in the assay on EKVX NSCLC; 16.6 µM in the assay on SF-295 CNS. The TGI with 786-0 renal is 13.3 µM; in the assay with SK-MEL-2 melanoma, 17.6 µM; in the assay with UO-31 renal, 27.2 µM; with COLO 205 colon it was 5.15 µM; in the assay on SN12C renal it was 15.3 µM; with A549 NSCLC, 26.1 µM. The molecule further registered a TGI with SK-OV-3 ovarian of 21.7 µM.

As for `COC(C)(C)C1(O)CC[C@@H](C)CC1=O` (some centres undefined), the TGI in the assay with SF-268 CNS, in the assay with OVCAR-4 ovarian, in the assay with RPMI-8226 leukemia, in the assay with A498 renal, in the assay with HCT-116 colon and with MDA-MB-435 was above 100 µM in each case. Further, the TGI in the assay on TK-10 renal, in the assay with NCI-H460 lung, in the assay with IGROV1 ovarian, in the assay on EKVX NSCLC, with SF-295 CNS and with 786-0 renal was above 100 µM each time. The TGI in the assay with UO-31 renal, in the assay with COLO 205 colon, in the assay with SN12C renal, in the assay on A549 NSCLC and in the assay with SK-OV-3 ovarian was above 100 µM in each case.
